Read-outs that look alike come from different tables or passages of the source.
Legend:
[1] = system: blood pressure; assay: Effect on blood pressure; settings: in vivo
[2] = system: cyclic 3', 5'-nucleotide phosphodiesterase; assay: Enzyme inhibition, cyclic 3', 5'-nucleotide phosphodiesterase; format: biochemical; settings: 3 × 10^-8 M
[3] = system: in situ heart; assay: Cardiotonic effect in the in situ heart, dog; format: in vivo
Text: (§1) This cardiac stimulation is observed in animals by measuring the in vitro contractile effect on isolated heart muscle and in vivo in anesthetized dogs fitted with a cardiac strain gauge.

[4] = system: Na, K-ATPase; assay: Enzyme inhibition, Na, K-ATPase; format: biochemical; settings: 3 × 10^-8 M
[5] = system: atria; assay: Inotropic effect on atria under stressful conditions; format: cell-based; settings: severe temperature stress, anoxia and low Ca^++ concentrations
[6] = system: mice; assay: Acute toxicity (LD50) in mice, i.p.; format: in vivo
Experimental: (§2) Anthopleurin-A can be further characterized by its pharmacological characteristics. […] The LD50 in mice (i.p.) is about 0.2-0.3 mg./kg.

[7] = system: isolated heart; assay: Cardiotonic effect in the isolated heart, dog; format: cell-based
Text: as §1

[8] = Isoelectric focusing; format: physicochemical; settings: doubly purified material
Text: For the purpose of obtaining electrophoretic and amino acid analysis the anthopleurin-A obtained in Example 1 was rechromatographed on CM Sephadex C-25, Sephadex G-50 and G-10 according to the process set forth in Example 1, Steps c, d and e, respectively. The doubly purified material was subject to electrophoretic analysis using commercially available pre-cast 12% acrylamide gels and matched buffer systems obtained from Bio.Rad Laboratories, 32nd and Griffin, Richmond, California.
Isoelectric focusing gives the isoelectric point at a pH = 8.2. Disc gel electrophoresis with 12% polyacrylamide gel at pH 3.6 gave an Rf value of 0.46 versus methyl green tracking dye. […] Sodium dodecyl sulfate (SDS) disc gel electrophoresis using a 10% gel indicated a m.w. of about 4,700 after incubation with dithioerythritol, using RNase A and pancreatic trypsin inhibitor (PTI) for comparison. The molecular weight is so low that these values are only approximate. AP-A was determined to be a peptide on the basis of positive ninhydrin spots obtained when a hydrolysate of AP-A was chromatographed.

[9] = system: isolated heart; assay: Cardiotonic effect in the isolated heart, rabbit; format: cell-based
Text: as §1

[10] = system: heart rate; assay: Chronotropic effect (heart rate)
[11] = system: isolated vascular muscle; assay: Mechanical effect on the isolated vascular muscle; format: cell-based
[12] = system: isolated guinea pig atria; assay: Positive inotropic effect on isolated guinea pig atria; format: cell-based
Experimental: as §2

[13] = Solubility in water; format: physicochemical; settings: deionized water
[14] = Dependence of drug action and toxicity on external Ca++ and K+, compared with ouabain
[15] = Stability of anthopleurin-A on storage and in solution; format: physicochemical
[16] = system: isolated heart; assay: Cardiotonic effect in the isolated heart, guinea pig; format: cell-based
Text: as §1

[17] = system: monoamine oxidase; assay: Enzyme inhibition, monoamine oxidase; format: biochemical; settings: 3 × 10^-8 M
[18] = system: catechol-O-methyltransferase; assay: Enzyme inhibition, catechol-O-methyltransferase; format: biochemical; settings: 3 × 10^-8 M
[19] = system: isolated heart; assay: Cardiotonic effect in the isolated heart, rat; format: cell-based
Text: as §1

[20] = system: isolated heart; assay: Cardiotonic effect in the isolated heart, cat; format: cell-based
Text: as §1

[21] = system: in situ heart; assay: Cardiotonic effect in the in situ heart, cat; format: in vivo

anthopleurin-A
effect on blood pressure [1]: negligible effect
effect on blood pressure ([1]; listed as AP-A): does not have any demonstrable effect
inhibition of cyclic 3', 5'-nucleotide phosphodiesterase [2]: none of the following enzymes is inhibited
cardiotonic effect in the in situ heart [3]: effective cardiotonic agent
inhibition of Na, K-ATPase [4]: none of the following enzymes is inhibited
inotropic effect on atria under stress [5]: positive inotropic effect
LD50 [6]: 0.2 to 0.3 mg/kg
cardiotonic effect in the isolated heart [7]: effective cardiotonic agent
isoelectric point [8]: 8.2 pH
cardiotonic effect in the isolated heart [9]: effective cardiotonic agent
chronotropic effect / effect on heart rate [10]: does not show any chronotropic effect
chronotropic effect / effect on heart rate ([10]; listed as AP-A): does not have any demonstrable effect
mechanical effect on the isolated vascular muscle / vascular smooth muscle [11]: no demonostrable mechanical effect
mechanical effect on the isolated vascular muscle / vascular smooth muscle ([11]; listed as AP-A): does not have any demonstrable effect
ED50, positive inotropic effect ([12]; isolated guinea pig atria): 1.1 nM
potency relative to ouabain in positive inotropic effect ([12]; times as potent as ouabain): 200-1000 x
solubility [13]: very soluble
effect of lowered external K^+ on drug toxicity [14]: does not alter drug toxicity
sensitivity to Ca^++ concentration [14]: not nearly as sensitive
time stable in solution ([15]; as fraction G, 20.5° C., 10^-7 M solutions, pH 4.55-7.80): at least 24 hours
loss of cardiotonic activity ([15]; as fraction G, pH above 11): about 90%
storage stability ([15]; kept at -20° C. for a year as lyophilized fraction C or lyophilized fraction G): no signs of deterioration
stability versus pH ([15]; neutral and lower pH values): relatively stable
cardiotonic effect in the isolated heart [16]: effective cardiotonic agent
inhibition of monoamine oxidase [17]: none of the following enzymes is inhibited
inhibition of catechol-O-methyltransferase [18]: none of the following enzymes is inhibited
cardiotonic effect in the isolated heart [19]: effective cardiotonic agent
cardiotonic effect in the isolated heart [20]: effective cardiotonic agent
cardiotonic effect in the in situ heart [21]: effective cardiotonic agent
